Assay results from ChEMBL document CHEMBL1201862, “PubChem BioAssay data set” (2004).
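1) Cells in 96-well plates. 2) Compound, 48 h, 5 concentrations. 3) Linear interpolation between surrounding doses. 4) Unreached endpoint = highest concentration. GI50: concentration for 50% inhibition of growth.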 Activity calls are given as the source filed them. No stated cut-off is given here; in the data, active = GI50 up to about 1.1 µM and inactive = higher.

Columns and labels:
Assay in all cases: NCI-60 cell line screen, 48 h
NCI-H522 = tested on: NCI-H522
786-0 = tested on: 786-0
MCF7 = tested on: MCF7
TK-10 = tested on: TK-10
SW-620 = tested on: SW-620
NCI-H460 = tested on: NCI-H460
OVCAR-4 = tested on: OVCAR-4
UO-31 = tested on: UO-31
OVCAR-3 = tested on: OVCAR-3
RPMI-8226 = tested on: RPMI-8226
Hs-578T = tested on: Hs-578T
NCI-H23 = tested on: NCI-H23
T47D = tested on: T47D
MDA-MB-435 = tested on: MDA-MB-435
SK-MEL-5 = tested on: SK-MEL-5
SN12C = tested on: SN12C
HCC 2998 = tested on: HCC 2998
KM12 = tested on: KM12
MOLT-4 = tested on: MOLT-4
SNB-75 = tested on: SNB-75

| Compound | GI50 (NCI-H522) | GI50 (786-0) | GI50 (MCF7) | GI50 (TK-10) | GI50 (SW-620) | GI50 (NCI-H460) | GI50 (OVCAR-4) | GI50 (UO-31) | GI50 (OVCAR-3) | GI50 (RPMI-8226) | GI50 (Hs-578T) | GI50 (NCI-H23) | GI50 (T47D) | GI50 (MDA-MB-435) | GI50 (SK-MEL-5) | GI50 (SN12C) | GI50 (HCC 2998) | GI50 (KM12) | GI50 (MOLT-4) | GI50 (SNB-75) |
| --- | --- | --- | --- | --- | --- | --- | --- | --- | --- | --- | --- | --- | --- | --- | --- | --- | --- | --- | --- | --- |
| C#CC1(O)CCCCCCCCC2(CCCCCCCC1)OCCO2 | 2.56 µM (inactive) | 17.6 µM (inactive) | 20.3 µM (inactive) | 20.7 µM (inactive) | 18.8 µM (inactive) | 21.3 µM (inactive) | 4.81 µM (inactive) | < 0.01 µM (active) | 15.4 µM (inactive) | 0.414 µM (active) | 17.8 µM (inactive) | 16.8 µM (inactive) | 15.5 µM (inactive) | 19.4 µM (inactive) | 19.2 µM (inactive) | 17.4 µM (inactive) | 15.5 µM (inactive) | 18.6 µM (inactive) | – | – |
| COc1ccc(S(=O)(=O)c2nnc(S(=O)(=O)Cc3ccccc3)s2)cc1 | 8.18 µM (inactive) | 18.8 µM (inactive) | 19.2 µM (inactive) | 15.7 µM (inactive) | 15 µM (inactive) | 17.4 µM (inactive) | 44.5 µM (inactive) | 21.6 µM (inactive) | 32.2 µM (inactive) | 6.59 µM (inactive) | 21.3 µM (inactive) | 27.3 µM (inactive) | 29.6 µM (inactive) | 22.5 µM (inactive) | 19.5 µM (inactive) | 23.7 µM (inactive) | – | 29.6 µM (inactive) | 2.58 µM (inactive) | 16.4 µM (inactive) |
| CCCCNC(=O)c1cc(S(=O)(=O)n2ccnc2O)c(SC)cc1Cl | > 100 µM (inactive) | > 100 µM (inactive) | > 100 µM (inactive) | > 100 µM (inactive) | > 100 µM (inactive) | > 100 µM (inactive) | > 100 µM (inactive) | > 100 µM (inactive) | > 100 µM (inactive) | > 100 µM (inactive) | > 100 µM (inactive) | > 100 µM (inactive) | > 100 µM (inactive) | > 100 µM (inactive) | > 100 µM (inactive) | > 100 µM (inactive) | > 100 µM (inactive) | > 100 µM (inactive) | > 100 µM (inactive) | – |
| O=C1c2ccccc2C(=O)c2sc(Nc3ccccc3C(F)(F)F)nc21 | 8.15 µM (inactive) | 16.4 µM (inactive) | 16.4 µM (inactive) | 19.7 µM (inactive) | 6.1 µM (inactive) | 21.8 µM (inactive) | – | 12.1 µM (inactive) | 7.33 µM (inactive) | 13 µM (inactive) | 11.9 µM (inactive) | 15.7 µM (inactive) | 12 µM (inactive) | 4.82 µM (inactive) | 8.05 µM (inactive) | 32.6 µM (inactive) | 15.5 µM (inactive) | 10.2 µM (inactive) | 3.45 µM (inactive) | 15.1 µM (inactive) |
| Cc1ccc(-c2ccc(Nc3c4ccccc4nc4ccccc34)cc2)cn1 | 2.83 µM (inactive) | 1.66 µM (inactive) | 2.26 µM (inactive) | 9.14 µM (inactive) | 4.01 µM (inactive) | 1.44 µM (inactive) | – | 3.13 µM (inactive) | 2.63 µM (inactive) | 1.92 µM (inactive) | 5 µM (inactive) | 4.66 µM (inactive) | 2.17 µM (inactive) | 4.43 µM (inactive) | 4.41 µM (inactive) | 3.89 µM (inactive) | 29 µM (inactive) | 3.8 µM (inactive) | 1.03 µM (active) | – |
| O=C(O)c1cccc2c1/C(=N/Nc1ccccc1)CC2 | > 100 µM (inactive) | > 100 µM (inactive) | 45.1 µM (inactive) | > 100 µM (inactive) | > 100 µM (inactive) | 32.1 µM (inactive) | > 100 µM (inactive) | > 100 µM (inactive) | > 100 µM (inactive) | > 100 µM (inactive) | > 100 µM (inactive) | > 100 µM (inactive) | 9.84 µM (inactive) | > 100 µM (inactive) | > 100 µM (inactive) | – | > 100 µM (inactive) | > 100 µM (inactive) | > 100 µM (inactive) | – |
| CCOc1ccc(NC(=S)N/C=C(/C(C)=O)C(=O)Nc2ccccc2C)cc1 | > 100 µM (inactive) | > 100 µM (inactive) | > 100 µM (inactive) | > 100 µM (inactive) | > 100 µM (inactive) | > 100 µM (inactive) | 59.8 µM (inactive) | > 100 µM (inactive) | > 100 µM (inactive) | 7.35 µM (inactive) | > 100 µM (inactive) | > 100 µM (inactive) | > 100 µM (inactive) | > 100 µM (inactive) | > 100 µM (inactive) | > 100 µM (inactive) | > 100 µM (inactive) | > 100 µM (inactive) | > 100 µM (inactive) | – |
| COC1(OC)c2no[n+]([O-])c2CCC1O (stereo not given) | > 100 µM (inactive) | > 100 µM (inactive) | > 100 µM (inactive) | > 100 µM (inactive) | > 100 µM (inactive) | > 100 µM (inactive) | > 100 µM (inactive) | > 100 µM (inactive) | > 100 µM (inactive) | > 100 µM (inactive) | > 100 µM (inactive) | > 100 µM (inactive) | > 100 µM (inactive) | > 100 µM (inactive) | > 100 µM (inactive) | > 100 µM (inactive) | > 100 µM (inactive) | > 100 µM (inactive) | > 100 µM (inactive) | – |
| COc1cccc(C2c3cc4c(cc3OC(NNS(=O)(=O)c3ccc(C)cc3)C2C)OCO4)c1O (stereo not given) | 11.4 µM (inactive) | 0.537 µM (active) | 18.7 µM (inactive) | 31.8 µM (inactive) | 23 µM (inactive) | 21.8 µM (inactive) | – | 18.5 µM (inactive) | 18.9 µM (inactive) | 6.31 µM (inactive) | 12.8 µM (inactive) | 29.2 µM (inactive) | 18.2 µM (inactive) | 23.4 µM (inactive) | 20.4 µM (inactive) | 37 µM (inactive) | 31.1 µM (inactive) | 20.3 µM (inactive) | 10.7 µM (inactive) | 11.2 µM (inactive) |
| CC(=O)c1ccccc1NP(=O)(c1ccccc1)c1ccccc1 | 37.3 µM (inactive) | > 100 µM (inactive) | 64.6 µM (inactive) | 40.8 µM (inactive) | 97.7 µM (inactive) | 43.6 µM (inactive) | 27.5 µM (inactive) | 45.3 µM (inactive) | 43.1 µM (inactive) | 16.6 µM (inactive) | 53.3 µM (inactive) | 79.1 µM (inactive) | 43.3 µM (inactive) | 38.7 µM (inactive) | 47.3 µM (inactive) | 69.5 µM (inactive) | > 100 µM (inactive) | 50.7 µM (inactive) | 32.1 µM (inactive) | – |
| CCCCCCCC(CC(=O)NC(CO)C(=O)NC(CO)CC(C)C)OC(=O)CC(CCCCCCC)OC(=O)CC(CCCCCCC)OC1OC(C)C(O)C(OC2OC(C)C(OC(C)=O)C(O)C2O)C1O (stereo not given) | 11.7 µM (inactive) | 5.6 µM (inactive) | 11.1 µM (inactive) | 16.1 µM (inactive) | 10.7 µM (inactive) | 3.97 µM (inactive) | 5.01 µM (inactive) | 15.4 µM (inactive) | 11.8 µM (inactive) | – | 4.22 µM (inactive) | 9.53 µM (inactive) | 9.14 µM (inactive) | 6.53 µM (inactive) | 10 µM (inactive) | 6.49 µM (inactive) | 5.05 µM (inactive) | 3.55 µM (inactive) | 2.38 µM (inactive) | 4.59 µM (inactive) |
| CC1=NN(c2cccc(Cl)c2)C2(SCC(=O)N2c2nc3ccccc3s2)C1=CC=Cc1ccccc1 (stereo not given) | 26.7 µM (inactive) | 35.2 µM (inactive) | 25.5 µM (inactive) | 62.4 µM (inactive) | 26.3 µM (inactive) | 30.5 µM (inactive) | 37.8 µM (inactive) | 23.6 µM (inactive) | 39.6 µM (inactive) | 23 µM (inactive) | 27.7 µM (inactive) | 27 µM (inactive) | 34.4 µM (inactive) | 31 µM (inactive) | 18.9 µM (inactive) | – | 32.3 µM (inactive) | 31.2 µM (inactive) | 19.1 µM (inactive) | – |
| CC1=CC(O)(c2ccccc2)C(N2CCOCC2)N1O (stereo not given) | > 100 µM (inactive) | > 100 µM (inactive) | > 100 µM (inactive) | > 100 µM (inactive) | > 100 µM (inactive) | > 100 µM (inactive) | > 100 µM (inactive) | > 100 µM (inactive) | > 100 µM (inactive) | > 100 µM (inactive) | > 100 µM (inactive) | > 100 µM (inactive) | > 100 µM (inactive) | > 100 µM (inactive) | > 100 µM (inactive) | > 100 µM (inactive) | > 100 µM (inactive) | > 100 µM (inactive) | > 100 µM (inactive) | – |
| Cc1n[nH]c(=O)n1/N=C/c1cccnc1 | > 100 µM (inactive) | > 100 µM (inactive) | > 100 µM (inactive) | > 100 µM (inactive) | > 100 µM (inactive) | > 100 µM (inactive) | > 100 µM (inactive) | > 100 µM (inactive) | > 100 µM (inactive) | > 100 µM (inactive) | > 100 µM (inactive) | > 100 µM (inactive) | > 100 µM (inactive) | > 100 µM (inactive) | > 100 µM (inactive) | > 100 µM (inactive) | > 100 µM (inactive) | > 100 µM (inactive) | > 100 µM (inactive) | – |
| CCOP(=O)(/C=C/n1cnc2c(=O)n(C(C)=O)c(N)nc21)OCC | 67.9 µM (inactive) | > 100 µM (inactive) | > 100 µM (inactive) | > 100 µM (inactive) | > 100 µM (inactive) | > 100 µM (inactive) | > 100 µM (inactive) | – | > 100 µM (inactive) | > 100 µM (inactive) | > 100 µM (inactive) | > 100 µM (inactive) | > 100 µM (inactive) | > 100 µM (inactive) | > 100 µM (inactive) | > 100 µM (inactive) | – | > 100 µM (inactive) | > 100 µM (inactive) | > 100 µM (inactive) |
